{"source": "PubChem BioAssay AID250", "about": "(DTP/NCI, 2004)", "tested_on": "BDF1 mice, L1210 leukemia sc, survival T/C", "test": "NCI In Vivo Anticancer Drug Screen. Data for tumor model L1210 Leukemia (subcutaneous) in B6D2F1 (BDF1) mice", "settings": "endpoint: median survival time, schedule: Q01DX Z (sc), higher = longer survival", "outline": "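Antitumor activity is assessed in mice with transplanted tumors by comparing the treated group (T) with the vehicle control group (C).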", "key": {"[1]": {"settings": "dose: 180.0 mg/kg/injection, vehicle: carboxymethylcellulose (CMC)"}, "[2]": {"settings": "dose: 300.0 mg/kg/injection, vehicle: carboxymethylcellulose (CMC)"}, "[3]": {"settings": "dose: 500.0 mg/kg/injection, vehicle: carboxymethylcellulose (CMC)"}, "[4]": {"settings": "dose: 23.0 mg/kg/injection, vehicle: water"}, "[5]": {"settings": "dose: 39.0 mg/kg/injection, vehicle: water"}, "[6]": {"settings": "dose: 65.0 mg/kg/injection, vehicle: water"}, "[7]": {"settings": "dose: 108.0 mg/kg/injection, vehicle: water"}, "[8]": {"settings": "dose: 39.0 mg/kg/injection, vehicle: methylcellulose (MC)"}, "[9]": {"settings": "dose: 65.0 mg/kg/injection, vehicle: methylcellulose (MC)"}, "[10]": {"settings": "dose: 108.0 mg/kg/injection, vehicle: methylcellulose (MC)"}, "[11]": {"settings": "dose: 180.0 mg/kg/injection, vehicle: methylcellulose (MC)"}}, "note": "Toxic doses and inconclusive results are not listed.", "data": [{"smiles": "O=C1C(NC(=O)C2CCCCC2)=C(N2CC2)C(=O)C(NC(=O)C2CCCCC2)=C1N1CC1", "values": [{"measurement": "T/C", "setting": "[1]", "result": "100 % of control"}, {"measurement": "T/C", "setting": "[2]", "result": "100 % of control"}, {"measurement": "T/C", "setting": "[3]", "result": "100 % of control"}, {"measurement": "T/C", "setting": "dose: 833.0 mg/kg/injection, vehicle: carboxymethylcellulose (CMC)", "result": "100 % of control"}, {"measurement": "T/C", "setting": "dose: 1388.0 mg/kg/injection, vehicle: carboxymethylcellulose (CMC)", "result": "100 % of control"}]}, {"smiles": "O=C(Nc1ccc(C2=NCCN2)cc1)c1cccc(C(=O)Nc2ccc(C3=NCCN3)cc2)c1", "values": [{"measurement": "T/C", "setting": "dose: 8.4 mg/kg/injection, vehicle: water", "result": "110 % of control"}, {"measurement": "T/C", "setting": "dose: 14.0 mg/kg/injection, vehicle: water", "result": "230 % of control"}, {"measurement": "T/C", "setting": "[4]", "result": "235 % of control"}, {"measurement": "T/C", "setting": "[5]", "result": "270 % of control"}, {"measurement": "T/C", "setting": "[6]", "result": "265 % of control"}, {"measurement": "T/C", "setting": "[7]", "result": "270 % of control"}]}, {"smiles": "CN(Cc1cnc2nc(N)nc(N)c2n1)c1c(Cl)cc(C(=O)NC(CCC(=O)O)C(=O)O)cc1Cl", "note": "(centres undefined)", "values": [{"measurement": "T/C", "setting": "dose: 14.0 mg/kg/injection, vehicle: sodium bicarbonate", "result": "245 % of control"}, {"measurement": "T/C", "setting": "dose: 23.0 mg/kg/injection, vehicle: sodium bicarbonate", "result": "259 % of control"}, {"measurement": "T/C", "setting": "dose: 39.0 mg/kg/injection, vehicle: sodium bicarbonate", "result": "427 % of control"}, {"measurement": "T/C", "setting": "dose: 100.0 mg/kg/injection, vehicle: other", "result": "154 % of control"}]}, {"smiles": "CN(C)c1ccc(Nc2c3ccccc3nc3ccccc23)cc1", "values": [{"measurement": "T/C", "setting": "dose: 93.0 mg/kg/injection, vehicle: saline", "result": "104 % of control"}, {"measurement": "T/C", "setting": "dose: 155.0 mg/kg/injection, vehicle: saline", "result": "113 % of control"}, {"measurement": "T/C", "setting": "dose: 259.0 mg/kg/injection, vehicle: saline", "result": "109 % of control"}, {"measurement": "T/C", "setting": "dose: 432.0 mg/kg/injection, vehicle: saline", "result": "113 % of control"}]}, {"smiles": "Oc1cc(CN(CCCl)CCCl)c(O)cc1CN(CCCl)CCCl", "values": [{"measurement": "T/C", "setting": "dose: 3.0 mg/kg/injection, vehicle: methylcellulose (MC)", "result": "100 % of control"}, {"measurement": "T/C", "setting": "dose: 5.0 mg/kg/injection, vehicle: methylcellulose (MC)", "result": "105 % of control"}, {"measurement": "T/C", "setting": "dose: 8.4 mg/kg/injection, vehicle: methylcellulose (MC)", "result": "110 % of control"}, {"measurement": "T/C", "setting": "dose: 14.0 mg/kg/injection, vehicle: methylcellulose (MC)", "result": "100 % of control"}, {"measurement": "T/C", "setting": "dose: 23.0 mg/kg/injection, vehicle: methylcellulose (MC)", "result": "105 % of control"}, {"measurement": "T/C", "setting": "[8]", "result": "110 % of control"}, {"measurement": "T/C", "setting": "[9]", "result": "110 % of control"}, {"measurement": "T/C", "setting": "[10]", "result": "120 % of control"}, {"measurement": "T/C", "setting": "[11]", "result": "120 % of control"}]}, {"smiles": "Nc1ncc(N)c(N)n1", "values": [{"measurement": "T/C", "setting": "[8]", "result": "100 % of control"}, {"measurement": "T/C", "setting": "dose: 65.0 mg/kg/injection, vehicle: carboxymethylcellulose (CMC)", "result": "100 % of control"}, {"measurement": "T/C", "setting": "[9]", "result": "100 % of control"}, {"measurement": "T/C", "setting": "dose: 108.0 mg/kg/injection, vehicle: carboxymethylcellulose (CMC)", "result": "107 % of control"}, {"measurement": "T/C", "setting": "[10]", "result": "100 % of control"}, {"measurement": "T/C", "setting": "[1]", "result": "100 % of control"}, {"measurement": "T/C", "setting": "[11]", "result": "100 % of control"}, {"measurement": "T/C", "setting": "[2]", "result": "100 % of control"}, {"measurement": "T/C", "setting": "dose: 300.0 mg/kg/injection, vehicle: methylcellulose (MC)", "result": "100 % of control"}, {"measurement": "T/C", "setting": "[3]", "result": "100 % of control"}]}, {"smiles": "O=C(Nc1ccc(C2=NCCN2)cc1)c1ccc(C(=O)Nc2ccc(C3=NCCN3)cc2)c(NC(=O)c2ccc(C(=O)Nc3cc(C(=O)Nc4ccc(C5=NCCN5)cc4)ccc3C(=O)Nc3ccc(C4=NCCN4)cc3)cc2)c1", "values": [{"measurement": "T/C", "setting": "[4]", "result": "110 % of control"}, {"measurement": "T/C", "setting": "[5]", "result": "100 % of control"}, {"measurement": "T/C", "setting": "[6]", "result": "100 % of control"}, {"measurement": "T/C", "setting": "[7]", "result": "100 % of control"}, {"measurement": "T/C", "setting": "dose: 180.0 mg/kg/injection, vehicle: water", "result": "100 % of control"}, {"measurement": "T/C", "setting": "dose: 300.0 mg/kg/injection, vehicle: water", "result": "100 % of control"}]}]}
